Results from publication PMC6049504 (RNA, 2018).

How the values were obtained:
Experiment in all cases: biochemical
TkTrm10 [1] = molecular target: TkTrm10 (Thermococcus kodakarensis, UniProt Q5JD38, D206A/D245A)
TkTrm10 [2] = molecular target: TkTrm10 (Thermococcus kodakarensis, UniProt Q5JD38, D206L)
TkTrm10 [3] = molecular target: TkTrm10 (Thermococcus kodakarensis, UniProt Q5JD38)
TkTrm10 [4] = molecular target: TkTrm10 (Thermococcus kodakarensis, UniProt Q5JD38, D206N/D245N)
Chain of TkTrm10 (Thermococcus kodakarensis, UniProt Q5JD38, D206N/D245N) (Q5JD38 whole entry D206N/D245N): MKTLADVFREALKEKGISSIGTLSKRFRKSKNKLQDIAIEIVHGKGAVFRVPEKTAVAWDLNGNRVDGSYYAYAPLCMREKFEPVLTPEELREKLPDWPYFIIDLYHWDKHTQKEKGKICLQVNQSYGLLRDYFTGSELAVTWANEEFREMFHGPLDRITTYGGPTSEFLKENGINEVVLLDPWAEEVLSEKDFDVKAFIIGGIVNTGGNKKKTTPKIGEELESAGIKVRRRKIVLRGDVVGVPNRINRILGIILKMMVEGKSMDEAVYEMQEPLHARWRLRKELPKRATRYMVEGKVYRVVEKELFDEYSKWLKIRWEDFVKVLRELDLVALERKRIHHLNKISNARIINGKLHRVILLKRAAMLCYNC

Chain of TkTrm10 (Thermococcus kodakarensis, UniProt Q5JD38) (Q5JD38 whole entry): as the sequence (Q5JD38 whole entry D206N/D245N) above, with N206D, N245D counted along it
Chain of TkTrm10 (Thermococcus kodakarensis, UniProt Q5JD38, D206A/D245A) (Q5JD38 whole entry D206A/D245A): as the sequence (Q5JD38 whole entry D206N/D245N) above, with N206A, N245A counted along it
Chain of TkTrm10 (Thermococcus kodakarensis, UniProt Q5JD38, D206L) (Q5JD38 whole entry D206L): as the sequence (Q5JD38 whole entry D206N/D245N) above, with N206L, N245D counted along it

Compound `C[S+](CC[C@H](N)C(=O)O)C[C@H]1O[C@@H](n2cnc3c(N)ncnc32)[C@H](O)[C@@H]1O` (stereo partly shown) [SAM] has a Kd (TkTrm10 [1]) of 20.4 ± 2.9 µM, a Kd (TkTrm10 [2]) of 68 ± 19 µM and a Kd (TkTrm10 [3]) of 9.4 ± 1.2 µM. For the same compound, the Kd (TkTrm10 [4]) was 19.3 ± 3.4 µM.
